As usually defined, the IC50 is the point on the concentration scale where inhibition reaches its midpoint. Read a low IC50 as inhibition by little substance. Broadly, the Km is the substrate concentration at which the rate is half of its maximum. A word on the kcat: it is the number of substrate molecules converted per active site and unit of time at saturation. Broadly, the kcat/Km is the turnover number divided by the Michaelis constant.

The test system of data set [1] is A. baumannii AB19606 WT (19606). Put plainly: microbe, parasite or virus in culture. The arrangement: species or system Acinetobacter baumannii AB19606. As to conditions: Acinetobacter baumannii, read-out: MIC.
Data set [2] addresses T1, sDacD (sPBP6b) (Acinetobacter baumannii, UniProt A0ABX6CI93).
T1 sequence (A0ABX6CI93 22-409): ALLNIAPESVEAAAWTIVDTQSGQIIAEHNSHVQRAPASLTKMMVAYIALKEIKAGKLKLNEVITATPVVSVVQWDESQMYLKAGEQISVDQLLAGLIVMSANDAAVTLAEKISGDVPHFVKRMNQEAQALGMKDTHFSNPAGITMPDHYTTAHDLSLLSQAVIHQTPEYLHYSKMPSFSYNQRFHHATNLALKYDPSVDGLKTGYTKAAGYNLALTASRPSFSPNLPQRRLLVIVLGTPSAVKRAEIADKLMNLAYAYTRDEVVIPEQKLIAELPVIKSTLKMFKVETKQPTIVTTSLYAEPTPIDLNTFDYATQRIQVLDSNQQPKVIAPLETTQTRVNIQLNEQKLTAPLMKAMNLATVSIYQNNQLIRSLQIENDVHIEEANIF
Put plainly: Bocillin FL competition, SDS-PAGE fluorescence. The data set is classed as binding.

Data set [3] concerns the target T2, sDacC (sPBP5/6) (Acinetobacter baumannii, UniProt G1C735).
T2 sequence (G1C735 20-367): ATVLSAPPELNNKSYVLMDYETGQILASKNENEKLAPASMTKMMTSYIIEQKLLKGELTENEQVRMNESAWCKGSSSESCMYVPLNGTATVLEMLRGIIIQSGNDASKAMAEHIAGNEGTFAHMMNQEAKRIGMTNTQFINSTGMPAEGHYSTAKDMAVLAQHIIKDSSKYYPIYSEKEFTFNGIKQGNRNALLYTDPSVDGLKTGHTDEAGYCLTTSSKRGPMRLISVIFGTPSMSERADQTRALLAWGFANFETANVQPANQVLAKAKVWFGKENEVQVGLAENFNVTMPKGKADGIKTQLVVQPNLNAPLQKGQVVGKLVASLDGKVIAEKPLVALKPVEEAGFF
The data set can be described thus: Bocillin FL competition, SDS-PAGE fluorescence. The data set is classed as binding.

In data set [4] the target is T1, sDacD (sPBP6b). The data set can be described thus: biochemical.
In data set [5] the target is T2, sDacC (sPBP5/6). The data set can be described thus: biochemical.
Substrate in data set [6]: CC1(C)S[C@@H]2[C@H](NC(=O)Cc3ccccc3)C(=O)N2[C@H]1C(=O)O
Put plainly: purified protein. As to conditions: 10 mM phosphate, pH 7.4, 30 °C.

Substrate in data set [7]: CO/N=C(\C(=O)N[C@@H]1C(=O)N2C(C(=O)O)=C(COC(C)=O)CS[C@H]12)c1csc(N)n1
Put plainly: purified protein. As to conditions: 10 mM phosphate, pH 7.4, 30 °C.

Substrate in data set [8]: C[C@@H](O)[C@H]1C(=O)N2C(C(=O)O)=C(SCCN=CN)C[C@H]12
Put plainly: purified protein. As to conditions: 10 mM phosphate, pH 7.4, 30 °C.

Substrate in data set [9]: CC1(C)S[C@@H]2[C@H](NC(=O)[C@H](C(=O)O)c3ccsc3)C(=O)N2[C@H]1C(=O)O
The data set can be described thus: purified protein. As to conditions: 10 mM phosphate, pH 7.4, 30 °C.

Substrate in data set [10]: NC(=O)c1cc[n+](CC2=C(C(=O)O)N3C(=O)[C@@H](NC(=O)[C@@H](c4ccccc4)S(=O)(=O)[O-])[C@H]3SC2)cc1
Put plainly: purified protein, by the assay type. As to conditions: pH 7.4; 30.0 °C.

Substrate in data set [11]: C[C@@H](O)[C@H]1C(=O)N2C(C(=O)O)=C(S[C@@H]3CN[C@H](C(=O)N(C)C)C3)[C@H](C)[C@H]12
Put plainly: purified protein, by the assay type. As to conditions: pH 7.4; 30.0 °C.

Substrate in data set [12]: C[C@@H](O)[C@H]1C(=O)N2C(C(=O)O)=C(S[C@@H]3CN[C@H](CNS(N)(=O)=O)C3)[C@H](C)[C@H]12
The data set can be described thus: purified protein, by the assay type. As to conditions: pH 7.4; 30.0 °C.

Substrate in data set [13]: CC(C)(O/N=C(\C(=O)N[C@@H]1C(=O)N2C(C(=O)[O-])=C(C[n+]3ccccc3)CS[C@H]12)c1csc(N)n1)C(=O)O
Put plainly: purified protein, by the assay type. As to conditions: pH 7.4; 30.0 °C.

Converted amounts (≈) assume the structure as drawn.

In the case of `CC1(C)S[C@@H]2[C@H](NC(=O)[C@H](C(=O)O)c3ccsc3)C(=O)N2[C@H]1C(=O)O` [Ticarcillin], the MIC in data set [1] worked out at 16 µg/mL (≈ 41.6 µM).
Consider `O=C(O)[C@H]1/C(=C/CO)O[C@@H]2CC(=O)N21` [Clavulanic acid], for which, on sDacD (sPBP6b) [2], the IC50 amounted to 5.8 µM.
As to `CC1(C)S[C@@H]2[C@H](NC(=O)Cc3ccccc3)C(=O)N2[C@H]1C(=O)O` [Penicillin G], the MIC in data set [1] was > 2000 µg/mL.
Turning to `C[C@@H](O)[C@H]1C(=O)N2C(C(=O)O)=C(S[C@@H]3CN[C@H](C(=O)N(C)C)C3)[C@H](C)[C@H]12` [Meropenem], the figures for the IC50 at sDacC (sPBP5/6) [3] and at sDacD (sPBP6b) [2] were 15.7 µM and 2.7 µM, respectively. The MIC in data set [1] stood at 1.6 µg/mL (≈ 4.17 µM).
Regarding `C[C@]1(Cn2ccnn2)[C@H](C(=O)O)N2C(=O)C[C@H]2S1(=O)=O` [Tazobactam], the IC50 came to 1590 µM against sDacD (sPBP6b) [4] and 1830 µM against sDacC (sPBP5/6) [5].
In the case of `CCN1CCN(C(=O)N[C@@H](C(=O)N[C@@H]2C(=O)N3[C@@H]2SC(C)(C)[C@@H]3C(=O)O)c2ccccc2)C(=O)C1=O` [PIP, Piperacillin], the IC50 was determined as 3280 µM against sDacD (sPBP6b) [4] and 539 µM against sDacC (sPBP5/6) [5]. In addition, the MIC in data set [1] was determined as 500 µg/mL (≈ 966 µM).
In the case of `CO[C@@]1(NC(=O)Cc2cccs2)C(=O)N2C(C(=O)O)=C(COC(N)=O)CS[C@@H]21` [FOX, Cefoxitin], the MIC in data set [1] is 500 µg/mL (≈ 1170 µM).
As to `Cc1onc(-c2ccccc2)c1C(=O)N[C@@H]1C(=O)N2[C@@H]1SC(C)(C)[C@@H]2C(=O)O` [Oxacillin], the IC50 at sDacC (sPBP5/6) [3] is 95.9 µM; on sDacD (sPBP6b) [2], 417 µM. Also, the MIC in data set [1] was 500 µg/mL (≈ 1250 µM).
Regarding `CO/N=C(\C(=O)N[C@@H]1C(=O)N2C(C(=O)O)=C(COC(C)=O)CS[C@H]12)c1csc(N)n1` [Cefotaxime], the MIC in data set [1] amounted to 64 µg/mL (≈ 141 µM).
Consider `CO/N=C(\C(=O)N[C@@H]1C(=O)N2C(C(=O)O)=C(COC(N)=O)CS[C@H]12)c1ccco1` [Cefuroxime], for which the IC50 on sDacC (sPBP5/6) [3] amounted to 12.9 µM; on sDacD (sPBP6b) [2], 161 µM. Further, the MIC in data set [1] worked out at 500 µg/mL (≈ 1180 µM).
As to `CC1(C)S[C@@H]2[C@H](NC(=O)[C@H](N)c3ccc(O)cc3)C(=O)N2[C@H]1C(=O)O` [AMX, Amoxicillin], the MIC in data set [1] stood at 1000 µg/mL (≈ 2740 µM).
In the case of `NC(=O)c1cc[n+](CC2=C(C(=O)[O-])N3C(=O)[C@@H](NC(=O)[C@@H](c4ccccc4)S(=O)(=O)O)[C@H]3SC2)cc1` [Cefsulodin], the IC50 at sDacC (sPBP5/6) [3] is 6.3 µM; on sDacD (sPBP6b) [2], 8.6 µM. In addition, the MIC in data set [1] came to 250 µg/mL (≈ 469 µM).
Take `C=CC1=C(C(=O)O)N2C(=O)[C@@H](NC(=O)/C(=N\OCC(=O)O)c3csc(N)n3)[C@H]2SC1` [Cefixime]: the values for the IC50 at sDacC (sPBP5/6) [3] and on sDacD (sPBP6b) [2] were 20.9 µM and 52.8 µM, respectively.
Regarding `CC1(C)[C@H](C(=O)O)N2C(=O)C[C@H]2S1(=O)=O` [Sulbactam], the IC50 was found to be 184 µM at sDacC (sPBP5/6) [5] and 3.8 µM at sDacD (sPBP6b) [2].
For `C[C@@H](O)[C@H]1C(=O)N2C(C(=O)O)=C(S[C@@H]3CN[C@H](CNS(N)(=O)=O)C3)[C@H](C)[C@H]12` [Doripenem], the IC50 stood at 9.2 µM at sDacC (sPBP5/6) [3] and 1.7 µM at sDacD (sPBP6b) [2]. Besides, in data set [1], the MIC is 1.6 µg/mL (≈ 3.8 µM).
Turning to `CC(C)(O/N=C(\C(=O)N[C@@H]1C(=O)N2C(C(=O)[O-])=C(C[n+]3ccccc3)CS[C@H]12)c1csc(N)n1)C(=O)O` [CAZ, Ceftazidime], the MIC in data set [1] stood at 16 µg/mL (≈ 29.3 µM).

B1: sDacC (sPBP5/6) (Acinetobacter baumannii) (protein)
chain: ATVLSAPPELNNKSYVLMDYETGQILASKNENEKLAPASMTKMMTSYIIEQKLLKGELTENEQVRMNESAWCKGSSSESCMYVPLNGTATVLEMLRGIIIQSGNDASKAMAEHIAGNEGTFAHMMNQEAKRIGMTNTQFINSTGMPAEGHYSTAKDMAVLAQHIIKDSSKYYPIYSEKEFTFNGIKQGNRNALLYTDPSVDGLKTGHTDEAGYCLTTSSKRGPMRLISVIFGTPSMSERADQTRALLAWGFANFETANVQPANQVLAKAKVWFGKENEVQVGLAENFNVTMPKGKADGIKTQLVVQPNLNAPLQKGQVVGKLVASLDGKVIAEKPLVALKPVEEAGFF
Take B1: the Km was 8.2 ± 1.4 µM in the data set “purified protein [6]”; 6.09 ± 0.9 µM in “purified protein [7]”; 3.75 ± 0.4 µM in the data set “purified protein [8]”; 12.47 ± 2.5 µM in the data set “purified protein [9]”; 21.21 µM in data set [10]; 12.19 µM in data set [11]. Besides, the figures for the Km in data set [12] and in data set [13] were 17.39 µM and 21.09 µM, respectively. The kcat in “purified protein [6]” was 65.81 ± 12.5 s⁻¹; in the data set “purified protein [7]”, 7.04 ± 1.1 s⁻¹; in the data set “purified protein [8]” it was 7.52 ± 0.5 s⁻¹; in the data set “purified protein [9]”, 93.31 ± 9.0 s⁻¹; in data set [10], 12.2 s⁻¹; in [11] it was 10 s⁻¹. Moreover, the kcat in data set [12] worked out at 5.35 s⁻¹; in data set [13], 8.36 s⁻¹. Moreover, the kcat/Km in data set [10] is 570000 M⁻¹ s⁻¹; in [11], 820000 M⁻¹ s⁻¹; in data set [12], 310000 M⁻¹ s⁻¹; in [13], 390000 M⁻¹ s⁻¹.

Values taken from publication doi:10.1101/2024.07.16.603720v1 (biorxiv, 2024).
